The values that follow come from US12071624B2, “Antisense oligonucleotide targeting ARL4C molecule, and nucleic acid drug using antisense oligonucleotide” (OSAKA UNIVERSITY, priority 2018, dated 2024).

Type in all cases: cell-based, human
The subject of series [1] is ARL4C mRNA. Briefly: Screening of ARL4C ASO knockdown efficiency by real-time PCR in A549 cells. The following applies: screening of 38 types of ARL4C ASOs. On the procedure: (§1) HLE cells, HCT116 cells, and A549 cells were transfected with 25 to 50 nM ASO and 10 to 20 nM siRNA using Lipofectamine 3000 (Invitrogen, Carlsbad, CA, USA) or RNAiMAX (Invitrogen). Transfected cells were used in the experiments 36 to 48 hours after the end of the transfection.
(§2) Cell migration assays and quantitative real-time PCR analyses were performed according to the methods reported by Fujii S et al. (Oncogene 2015; 34: 4834-44).
First, base sequences of 15-nucleotide ARL4C were selected based on the structure of ARL4C mRNA. From thousands of ARL4C ASO candidates, those that may cause hepatotoxicity were excluded, and 38 types of ARL4C ASOs (those other than ASO-1312, ASO-1450 and ASO-3223 among the ASOs in Table 1) were selected, by high-dimensional structure prediction of ARL4C mRNA. The ASOs used in this test were those in which all of the phosphodiester bonds were substituted with phosphorothioate bonds. Knockdown efficiencies of ARL4C ASOs in A549 cells (lung adenocarcinoma cells) were investigated by screening experiments using real-time PCR. It has been confirmed that the protein abundance of ARL4C in A549 cells is reduced by treatment with ARL4C siRNA. The ARL4C mRNA amounts in A549 cells treated with 38 types of ARL4C ASOs were measured, and the results are shown in (a) of FIG. 3.
For orientation: In qPCR the cycle at which signal appears reflects the starting amount.

For series [2], the system named is PIK3CD mRNA. Briefly: PIK3CD mRNA amount by real-time PCR in ARL4C-expressing HepG2 cells. The following applies: ARL4C-transduced HepG2 cells, 25 μM SecinH3 or 50 μM NSC23766.
The subject of series [3] is ARL4C mRNA. Briefly: ARL4C mRNA amount by real-time PCR in HCT116 cells. The following applies: HCT116 cells transfected at 25 nM. On the procedure:
as §1, §2
(§3) HLE cells and HCT116 cells were transfected with the above-described seven types of ARL4C ASOs and the control ASO at 25 nM, and the ARL4C mRNA amounts were measured by real-time PCR; the results thereof are shown in (a) of FIG. 4. […] In order to optimize the effect of these three types of ARL4C ASOs, four bases were added to each of these three types of ARL4C ASOs, whereby ASO-1312, ASO-1450, and ASO-3223 each of which consisted of 19 bases were produced. With these six types of ARL4C ASOs (ASO-1316, ASO-1312, ASO-1454, ASO-1450, ASO-3225, and ASO-3223), the knockdown effect on ARL4C was further studied.

Series [4] concerns ARL4C mRNA. Put plainly: ARL4C mRNA amount by real-time PCR in HLE cells. On the procedure:
as §1, §2, §3
HLE cells were transfected with ARL4C ASOs (ASO-1316, ASO-1312, ASO-1454, ASO-1450, ASO-3225, and ASO-3223) at 25 nM each, and the ARL4C mRNA amounts were measured by real-time PCR; the results are shown in (c) of FIG. 3. In addition, HLE cells were transfected with ARL4C ASOs (ASO-1316, ASO-1312, ASO-3225, and ASO-3223) at 0.5 to 25 nM each, and the ARL4C mRNA amounts were measured by real-time PCR; the results are shown in (b) of FIG. 4.
HLE cells were treated with 10 μM PD184161 or 10 nM CTNNB1 siRNA (siRNA against CTNNB1), and the ARL4C mRNA amount was measured by real-time PCR; the results are shown in (a) of FIG. 5. In addition, HLE cells were treated with 10 nM CTNNB1 siRNA (siRNA against CTNNB1), and the ARL4C mRNA amount was measured by real-time PCR; the results thereof are shown in (a) of FIG. 6. PD184161 is a compound that inhibits MEK without knocking down […].

Series [5] relates to PIK3CD mRNA. Put plainly: PIK3CD mRNA amount by real-time PCR in HLE cells. The following applies: HLE cells treated with 25 μM SecinH3. How it is done: as §1, §2
HLE cells were treated with 25 μM SecinH3 (inhibitor of Arf nucleotide-binding site opener (ARNO)) or 50 μM NSC23766 (Rac inhibitor), and the amount of PIK3CD mRNA was measured by real-time PCR; the results are shown in (c) of FIG. 5.
HLE cells were transfected with control ASO, ASO-1316, and ASO-3223 at 25 nM, and the PIK3CD mRNA amount was measured by real-time PCR; the results are shown in (g) of FIG. 5. In addition, an anti-phosphorylated AKT (pAKT S473) antibody and an anti-AKT antibody as probes were caused to act on cell lysates of HLE cells transfected with control ASO, ASO-1316, and ASO-3223; the results are shown in (h) of FIG. 5.

Consider “ASO-650: 15-mer ARL4C ASO of Table 1, SEQ ID NO 8 (antisense NNNTGGCAGCTGNNG; AmNA modifications; Amido-bridged nucleic acid (AmNA); modified_base (1)..(1) n is Adenine having a structure of AmNA (2′,4′- bridged nucleotide in which R is a methyl group); (1)..(3) n is a, c, g, or t; modified_base (2)..(2) n is Adenine having a structure of AmNA (2′,4′- bridged nucleotide in which R is a methyl group); modified_base (3)..(3) n is Guanine having a structure of AmNA (2′,4′- bridged nucleotide in w)”, for which the “knockdown efficiency (ARL4C mRNA amount)” value in the series on ARL4C mRNA [1] was “high knockdown efficiencies”.

For “ASO-1065: 15-mer ARL4C ASO of Table 1, SEQ ID NO 11 (antisense NNNAAATCAGACNNC; AmNA modifications; Amido-bridged nucleic acid (AmNA); modified_base (1)..(1) n is Guanine having a structure of AmNA (2′,4′- bridged nucleotide in which R is a methyl group); (1)..(3) n is a, c, g, or t; modified_base (2)..(2) n is Guanine having a structure of AmNA (2′,4′- bridged nucleotide in which R is a methyl group); modified_base (3)..(3) n is Thymine having a structure of AmNA (2′,4′- bridged nucleotide in w)”, in the series with ARL4C mRNA [1], the “knockdown efficiency (ARL4C mRNA amount)” value was “high knockdown efficiencies”.

Take `CCN(CC)CCCC(C)Nc1nc(C)cc(Nc2ccc3nc(C)cc(N)c3c2)n1` (centres unmarked) [NSC23766]: the “PIK3CD mRNA amount” value in the series on PIK3CD mRNA [2] is given as “suppressed an increase in the PIK3CD mRNA amount”.

For “ASO-1454: 15-mer ARL4C ASO of Table 1, SEQ ID NO 14 (antisense NNNACAAATGAANNT; AmNA modifications; Amido-bridged nucleic acid (AmNA); modified_base (1)..(1) n is Adenine having a structure of AmNA (2′,4′- bridged nucleotide in which R is a methyl group); (1)..(3) n is a, c, g, or t; modified_base (2)..(2) n is Guanine having a structure of AmNA (2′,4′- bridged nucleotide in which R is a methyl group); modified_base (3)..(3) n is Guanine having a structure of AmNA (2′,4′- bridged nucleotide in w)”, the “ARL4C mRNA amount” value in the series with ARL4C mRNA [3] and in the series with ARL4C mRNA [4] (HLE cells transfected at 25 nM) was “reduced the ARL4C mRNA amount” in each case. In addition, the “knockdown efficiency (ARL4C mRNA amount)” value in the series with ARL4C mRNA [1] is reported as “high knockdown efficiencies”.

On to “ASO-3225: 15-mer ARL4C ASO of Table 1, SEQ ID NO 35 (antisense NNNTTACAGTATNNG; AmNA modifications; Amido-bridged nucleic acid (AmNA); modified_base (1)..(1) n is Adenine having a structure of AmNA (2′,4′- bridged nucleotide in which R is a methyl group); (1)..(3) n is a, c, g, or t; modified_base (2)..(2) n is Guanine having a structure of AmNA (2′,4′- bridged nucleotide in which R is a methyl group); modified_base (3)..(3) n is Guanine having a structure of AmNA (2′,4′- bridged nucleotide in w)”, for which the “ARL4C mRNA amount” value in the series on ARL4C mRNA [3] and in the series on ARL4C mRNA [4] (HLE cells transfected at 25 nM) was “reduced the ARL4C mRNA amount” throughout. Besides, the “knockdown efficiency (ARL4C mRNA amount)” value in the series with ARL4C mRNA [1] is “high knockdown efficiencies”.

`O=C(NOCC1CC1)c1cc(Br)c(F)c(F)c1Nc1ccc(I)cc1Cl` [PD184161, reference compound]: the “ARL4C mRNA amount” value in the series on ARL4C mRNA [4] (HLE cells treated with 10 μM PD184161) is reported as “reduced ARL4C mRNA amount”.

On to “ASO-986: 15-mer ARL4C ASO of Table 1, SEQ ID NO 10 (antisense NNNTCATAGAGCNNG; AmNA modifications; Amido-bridged nucleic acid (AmNA); modified_base (1)..(1) n is Adenine having a structure of AmNA (2′,4′- bridged nucleotide in which R is a methyl group); (1)..(3) n is a, c, g, or t; modified_base (2)..(2) n is 5-methylcytosine having a structure of AmNA (2′,4′-bridged nucleotide in which R is a methyl group); modified_base (3)..(3) n is Thymine having a structure of AmNA (2′,4′- bridged nucleot)”, for which the “knockdown efficiency (ARL4C mRNA amount)” value with ARL4C mRNA [1] is recorded as “high knockdown efficiencies”.

Take `COc1nc(-c2ccc3c(c2)OCO3)n(-c2ccc(NC(=O)CSc3ccccc3)cc2)n1` [SecinH3, reference compound]: the results for the “PIK3CD mRNA amount” value in the series with PIK3CD mRNA [5] and in the series on PIK3CD mRNA [2] were “reduced the PIK3CD mRNA amount” and “suppressed an increase in the PIK3CD mRNA amount”, respectively.

Consider “ASO-793: 15-mer ARL4C ASO of Table 1, SEQ ID NO 9 (antisense NNNTGGTCACCTNNT; AmNA modifications; Amido-bridged nucleic acid (AmNA); modified_base (1)..(1) n is Adenine having a structure of AmNA (2′,4′- bridged nucleotide in which R is a methyl group); (1)..(3) n is a, c, g, or t; modified_base (2)..(2) n is 5-methylcytosine having a structure of AmNA (2′,4′-bridged nucleotide in which R is a methyl group); modified_base (3)..(3) n is Thymine having a structure of AmNA (2′,4′- bridged nucleot)”, for which, in the series on ARL4C mRNA [1], the “knockdown efficiency (ARL4C mRNA amount)” value is given as “high knockdown efficiencies”.
